Laboratory results taken from patent US20240336591A1, “ORGANIC PYRIDINE-PYRAZOLE COMPOUNDS AND THEIR USES” (priority 2021, published 2024).
Entries after “also recorded” stand apart in the source; their conditions may differ.

Legend:
Human PDE10A2 [1] = molecular target: T1, Human PDE10A2 (Homo sapiens (Human), UniProt Q9Y233); assay: Cell based human PDE10A activity assay - cAMP HTRF assay in HEK 293 rhPDE10A2 cell line
Procedure: Semi log compound dilutions starting at a final concentration of 10 μM were dispensed into a white 384 well plate, alongside DMSO and an Inhibited control using the Tecan D300e digital dispenser. HEK 293 cells overexpressing recombinant human PDE10A2 were seeded on top of the compounds at 2500 cells/well in a volume 5 μL/well. The plate was incubated at room temperature for 60 minutes. To induce endogenous cAMP, 5 μL/well of Forskolin at a final assay concentration of 10 μM was added to the plate. The plate was incubated at room temperature for a further 45 minutes. cAMP HTRF detection reagents were added, and the plate was incubated for 60 minutes at room temperature. […] Data was analysed using a 4-parameter fit.

[2] = test system: inflamed colonic mucosa from ulcerative colitis patients; assay: Ex-vivo colon biopsy culture from ulcerative colitis patients, cytokine release (Protocol 1); format: cell-based, human
Procedure: The effect of selective PDE10A inhibition was tested on inflamed colonic mucosa from ulcerative colitis patients taken during routine endoscopy (Protocol 1 detailed below). These samples retain a disease phenotype in ex-vivo culture, secrete high basal levels of inflammatory cytokines, and represent a highly relevant and translational disease model. The effect of the PDE10A inhibitors on levels of the inflammatory cytokines IL-6 and IL-8 released from these tissue samples were measured. Both IL-6 and IL-8 are key regulators in ulcerative colitis pathology and their levels correlate with disease severity (Waldner M J et al. Master regulator of intestinal disease: IL-6 in chronic inflammation and cancer development. Semin Immunol. 26(1), 75-9 (2014); Bernardo D et al. IL-6 promotes immune responses in human ulcerative colitis and induces a skin-homing phenotype in the dendritic cells and T-cells they stimulate. Eur J Immunol. 42(5), 1337-53 (2012); Pearl D S, Cytokine mucosal expression in ulcerative colitis, the relationship between cytokine release and disease activity. J Crohns Colitis. 7(6), 481-9 (2013)).
These colon biopsies retain an inflammatory phenotype and secrete high levels of inflammatory cytokines in ex-vivo culture.
(§1) Biopsy tissue was obtained from inflamed colonic mucosa from ulcerative colitis or Crohn's disease patients during routine endoscopy. Ex-vivo biopsy cultures for the analysis of inflammatory cytokine biomarkers were run as previously described (Vossenkämper A. et al. A CD3- specific antibody reduces cytokine production and alters phosphoprotein profiles in intestinal tissues from patients with inflammatory bowel disease. Gastroenterology, 147, 172-183 (2014)). Biopsies were incubated in organ culture for 24 h with the addition of positive control compounds, or specific PDE10A inhibitors. Supernatants collected at the end of the experiment were snap-frozen and stored at −70° C. For the measurement of cytokines, the frozen culture supernatants were thawed and analysed for levels of the inflammatory cytokines using Luminex cytokine assay kits (R&D Systems) and an R&D Systems MAGPIX® analyser. Mean values ±SDs were calculated for the levels of spontaneous cytokine production measured in biopsy culture supernatants from each treatment group.

Human PDE10A2 [3] = molecular target: T1, Human PDE10A2; assay: Biochemical human PDE10A activity assay - PDE10A2 Phosphate Sensor Assay; conditions: cGMP 3 μM substrate, PDE10A2 0.25 nM
Procedure: Biochemical Human PDE10A Activity Assay—PDE10A2 Phosphate Sensor Assay
Semi Log compound dilutions starting at a final concentration of 50 μM were dispensed into a black 384 well plate alongside, DMSO and an Inhibited control using the Echo Acoustic dispenser. […] Data was analysed using a 4-parameter fit.

[4] = Determination of CNS penetration in vivo (brain to plasma partitioning, Kpuu); set-up: species or system Male Sprague Dawley Rats; conditions: male, Sprague-Dawley, brain / plasma (unbound); rat, IV, 1 mg/kg, 10-30 min post dose
[5] = test system: isolated human neutrophil; assay: In vitro assay of IL-8 neutrophil activation; format: cell-based
other PDE family members = conditions: read-out: IC50s for other PDE family members; literature value; cited from earlier work
[6] = test system: inflamed colonic mucosa from pharmacotherapy treatment-refractory ulcerative colitis patients; assay: Ex-vivo culture of inflamed colon tissue from surgical resection of treatment-refractory UC patients, TNFα release (Protocol 2); format: cell-based, human; conditions: 1 μM; UC donors 4 and 5; with SEB; about 18 hours; vs DMSO vehicle
[7] = test system: inflamed colonic mucosa from Crohn's Disease patients; assay: Ex-vivo colon biopsy culture from Crohn's disease patients, cytokine release (Protocol 1); format: cell-based, human; conditions: 0.1 uM; 2 independent CD patient biopsies; vs DMSO vehicle; listed as PF-2545920
Procedure: In addition, we tested the effect of selective PDE10A inhibition using 0.1 uM PF-2545920 on inflamed colonic mucosa from Crohn's Disease patients taken during routine endoscopy (Protocol 1).
as §1

[8] = 100 nM, UC donor 3, vs vehicle control
[9] = UC donors 1 and 2, PF-02545920 0.1 μM and 1 μM, TAK-063 1 uM, 24 h, vs DMSO vehicle

T1 sequence (Q9Y233 267-1055): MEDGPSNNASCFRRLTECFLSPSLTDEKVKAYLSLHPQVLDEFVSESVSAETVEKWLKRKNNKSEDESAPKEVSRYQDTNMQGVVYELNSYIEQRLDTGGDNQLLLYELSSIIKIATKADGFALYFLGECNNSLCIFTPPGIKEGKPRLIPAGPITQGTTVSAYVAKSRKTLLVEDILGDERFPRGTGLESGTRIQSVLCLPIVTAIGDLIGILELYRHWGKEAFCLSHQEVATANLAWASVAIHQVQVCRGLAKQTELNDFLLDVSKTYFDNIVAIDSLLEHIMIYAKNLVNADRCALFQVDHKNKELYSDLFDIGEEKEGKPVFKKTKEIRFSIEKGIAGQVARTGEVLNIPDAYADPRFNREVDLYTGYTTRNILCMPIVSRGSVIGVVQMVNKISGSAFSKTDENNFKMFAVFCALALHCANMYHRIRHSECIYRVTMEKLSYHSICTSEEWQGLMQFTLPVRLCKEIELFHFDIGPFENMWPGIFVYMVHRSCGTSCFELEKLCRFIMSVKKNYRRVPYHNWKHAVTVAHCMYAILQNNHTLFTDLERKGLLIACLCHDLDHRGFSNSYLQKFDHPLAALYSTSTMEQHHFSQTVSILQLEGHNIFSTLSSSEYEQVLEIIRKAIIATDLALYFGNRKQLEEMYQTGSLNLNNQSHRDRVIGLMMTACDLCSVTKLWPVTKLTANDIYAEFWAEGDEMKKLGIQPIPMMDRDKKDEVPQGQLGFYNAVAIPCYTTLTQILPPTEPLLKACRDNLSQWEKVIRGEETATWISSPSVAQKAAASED

Structure (SMILES)	IC50 (Human PDE10A2 [1]) [nM]	secreted levels of IL-6 [2, 8]	secreted levels of IL-8 [2, 8]	PDE10A2 Phosphate Sensor Enzyme Assay (pIC50) (Human PDE10A2 [3])	Kp uu [4]	IL-8 induced neutrophil activation [5]	IC50 (other PDE family members) [nM]	secreted levels of IL-6 [2, 9]	secreted levels of IL-8 [2, 9]	secreted levels of TNFα [6]	secreted levels of IL-6 [7]	secreted levels of IL-8 [7]
Cn1cc(-c2ccncc2)c(-c2ccc(OCc3nc4cccnc4cc3C(=O)N=S(C)(C)=O)cc2)n1 [Example 19, N-[Dimethyl(oxo)-λ6-sulfanylidene]-2-[[4-[1-methyl-4-(4-pyridyl)pyrazol-3-yl]phenoxy]methyl]-1,5-naphthyridine-3-carboxamide]	5.37	significantly reduce	significantly reduce	9.43	0.05	–	–	–	–	–	–	–
Cn1cc(-c2ccncc2)c(-c2ccc(OCc3nc4ccccn4c3C(=O)N=S(C)(C)=O)cc2)n1 [Example 20, N-[Dimethyl(oxo)-λ6-sulfanylidene]-2-[[4-[1-methyl-4-(4-pyridyl)pyrazol-3-yl]phenoxy]methyl]imidazo[1,2-a]pyridine-3-carboxamide]	6.76	significantly reduce	significantly reduce	9.76	0.11	–	–	–	–	–	–	–
Cn1cc(-c2ccncc2)c(-c2ccc(OCc3ccc4ccccc4n3)cc2)n1 [PF-02545920]	–	–	–	–	–	dose dependently inhibited	> 1000	inhibiting; also recorded: significantly reduced	inhibiting; also recorded: significantly reduced	inhibiting; also recorded: significantly reduced	inhibits; also recorded: significantly reduced	inhibits; also recorded: significantly reduced
COc1cn(-c2ccc(-n3cccn3)cc2F)nc(-c2ccnn2-c2ccccc2)c1=O [TAK-063, 1-[2-fluoro-4-(1H-pyrazol-1-yl)phenyl]-5-methoxy-3-(1-phenyl-1H-pyrazol-5-yl)pyridazin-4(1H)-one, reference compound]	–	–	–	–	–	–	> 5000	inhibiting; also recorded: significantly reduced	inhibiting; also recorded: significantly reduced	–	–	–
